Results: patent US10533006B2, “Nitrogen-containing heterocycle and carbocycle derivatives having TrkA inhibitory activity” (Shionogi & Co., Ltd., priority 2016, dated 2020)

The compounds below were run against T1, human TrkA (Homo sapiens, UniProt P04629) (assay: Human TrkA inhibition assay). Settings: human TrkA phosphorylation inhibition, ATP 500 μmol/L; read-out: IC50_nM.
T1 construct: purchased Lifetechnologies PV3144
T1 sequence (P04629 33-796): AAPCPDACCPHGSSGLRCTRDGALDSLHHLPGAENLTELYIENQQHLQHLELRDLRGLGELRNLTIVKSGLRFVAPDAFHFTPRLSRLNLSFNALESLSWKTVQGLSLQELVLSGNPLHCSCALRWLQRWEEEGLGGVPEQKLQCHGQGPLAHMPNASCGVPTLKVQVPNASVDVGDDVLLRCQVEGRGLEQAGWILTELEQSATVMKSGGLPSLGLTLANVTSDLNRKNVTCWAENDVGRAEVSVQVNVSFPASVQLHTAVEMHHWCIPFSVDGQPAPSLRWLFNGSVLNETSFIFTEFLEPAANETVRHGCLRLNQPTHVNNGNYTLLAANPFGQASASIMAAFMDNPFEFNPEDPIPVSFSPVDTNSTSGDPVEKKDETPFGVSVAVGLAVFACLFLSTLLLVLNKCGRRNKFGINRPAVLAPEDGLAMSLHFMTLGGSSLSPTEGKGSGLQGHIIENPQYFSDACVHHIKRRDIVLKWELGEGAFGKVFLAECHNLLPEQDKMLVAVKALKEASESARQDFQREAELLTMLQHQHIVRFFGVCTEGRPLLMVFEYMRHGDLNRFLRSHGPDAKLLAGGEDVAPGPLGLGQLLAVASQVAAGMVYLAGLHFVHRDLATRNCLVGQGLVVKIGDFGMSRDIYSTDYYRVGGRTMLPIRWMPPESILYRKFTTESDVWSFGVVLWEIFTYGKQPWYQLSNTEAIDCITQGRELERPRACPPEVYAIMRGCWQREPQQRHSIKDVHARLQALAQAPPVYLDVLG
Format: biochemical
Experimental: Seven point five L per well of human TrkA (PV3144, Lifetechnologies, final concentration: 1 nmol/L) suspended in the assay buffer (100 mmol/L 4-(2-hydroxyethyl)-1-piperazineethanesulfonic acid (HEPES), 10 mmol/L magnesium chloride, 0.003 vol % Brij-35, 0.004 vol % Tween20 and 1 mmol/L dithiothreitol (DTT)) was applied in a 384 well plate and the plate was pre-incubated for 15 min at room temperature with 0.4 μL of each compound (final concentration: 200 μmol/L-0.1 nM) dissolved in DMSO. Then, fluorescent substrate (FL-peptide 27, 760424, PerkinElmer, final concentration: 1.5 μmol/L) and ATP (final concentration 500 μmol/L) dissolved in the assay buffer was added in each well. After the incubation of 120 min at 37° C., fifteen μL of termination buffer (100 mmol/L HEPES, 40 mmol/L ethylenediaminetetraacetic acid (EDTA), 10 mmol/L magnesium chloride, 0.003 vol % Brij-35, 0.004 vol % Tween20, 1 mmol/L DTT and 0.16 vol % Coating Reagent 3) was added in each well to stop the enzyme reaction. Fluorescent intensities (FI) of phosphorylated and non-phosphorylated fluorescent substrates were measured by LabChip EZReader II (Caliper LifeSciences, Inc.), and conversion ratio (CR) was calculated by the following formula-1. The CR in the well applied with DMSO alone was used as a negative control and the CR in the well without applying TrkA was used as a positive control. The inhibitory effect of each compound on TrkA phosphorylation was calculated by the following formula-2. CR (%)=(FI of phosphorylated substrate/(FI of phosphorylated substrate+FI of non-phosphorylated substrate))×100 (Formula-1) Phosphorylation inhibition (%)=(1−(CR with compound treatment−CR of positive control)/(CR of negative control−CR of positive control))×100 (Formula-2)
IC50 values (nmol/L) were determined by the logistic regression using the inhibition data in 10 points of 3-fold dilution series at a compound concentration range of 2 μmol/L to 0.1 nmol/L, or 15 points of 3-fold dilution series at the range of 200 μmol/L to 0.04 nmol/L.
Compound `COCCN1C[C@@H](NC(=O)Nc2c(C)c(-c3ccnc(C(=O)NO)c3)nn2-c2ccccc2)[C@H](c2ccccc2)C1` (racemic) [Compound I-63] has an IC50 of less than 100 nM. Work on `COCCN1C[C@@H](NC(=O)Nc2c(C)c(-c3cnc4c(c3)c(C(=O)OC)nn4C)nn2-c2ccccc2)[C@H](c2ccccc2)C1` (racemic) [Compound I-64] yielded an IC50 of less than 100 nM. In the case of `COCCN1C[C@@H](NC(=O)Nc2c(C)c(-c3cnc4c(c3)c(CO)nn4C)nn2-c2ccccc2)[C@H](c2ccccc2)C1` (racemic) [Compound I-65], the IC50 is reported as less than 100 nM. In the case of `COCCN1C[C@@H](NC(=O)Nc2c(C)c(-c3ccnc(C(=O)NC4COC4)c3)nn2-c2ccccc2)[C@H](c2ccccc2)C1` (racemic) [Compound I-69], the IC50 is reported as less than 100 nM. With `COCCN1C[C@@H](NC(=O)Nc2c(C)c(-c3ccnc(C(=O)NC4CC(F)(F)C4)c3)nn2-c2ccccc2)[C@H](c2ccccc2)C1` (racemic) [Compound I-70] the IC50 was less than 100 nM. Compound `COCCN1C[C@@H](NC(=O)Nc2c(C)c(-c3ccnc(C(=O)NC4CCCCC4)c3)nn2-c2ccccc2)[C@H](c2ccccc2)C1` (racemic) [Compound I-71] has an IC50 of less than 100 nM. Compound `COCCN1C[C@@H](NC(=O)Nc2c(C)c(-c3ccnc(C(=O)NC4CCS(=O)(=O)CC4)c3)nn2-c2ccccc2)[C@H](c2ccccc2)C1` (racemic) [Compound I-73] has an IC50 of less than 100 nM. With `COCCN1C[C@@H](NC(=O)Nc2c(C)c(-c3cnc(OC)c(C(=O)NC4CCCCC4)c3)nn2-c2ccccc2)[C@H](c2ccccc2)C1` (racemic) [Compound I-77] the IC50 was less than 100 nM. `COCCN1C[C@@H](NC(=O)Nc2c(C)c(-c3cnc(OC)c(C(=O)NC4CCS(=O)(=O)CC4)c3)nn2-c2ccccc2)[C@H](c2ccccc2)C1` (racemic) [Compound I-79] showed an IC50 of less than 100 nM. With `COCCN1C[C@@H](NC(=O)Nc2c(C)c(-c3cnc(OC)c(C(=O)NC4CC(F)(F)C4)c3)nn2-c2ccccc2)[C@H](c2ccccc2)C1` (racemic) [Compound I-81] the IC50 was less than 100 nM. `COCCN1C[C@@H](NC(=O)Nc2c(C)c(-c3cnc(OC)c(C(=O)NC4CCC(F)(F)CC4)c3)nn2-c2ccccc2)[C@H](c2ccccc2)C1` (racemic) [Compound I-83] was tested, and the IC50 was less than 100 nM. `COCCN1C[C@@H](NC(=O)Nc2c(C)c(-c3cnc4c(c3)c(C)nn4C)nn2-c2ccccc2)[C@H](c2ccccc2)C1` (racemic) [Compound I-89] gave an IC50 of less than 100 nM. `COCCN1C[C@@H](NC(=O)Nc2c(C)c(-c3ccc(N=S(C)(C)=O)nc3)nn2-c2ccccc2)[C@H](c2ccccc2)C1` (racemic) [Compound I-91] gave an IC50 of less than 100 nM. For `COCCN1C[C@@H](NC(=O)Nc2c(C)c(-c3cnc4c(c3)c(OC)nn4C)nn2-c2ccccc2)[C@H](c2ccccc2)C1` (racemic) [Compound I-95], the IC50 was less than 100 nM. `COCCN1C[C@@H](NC(=O)Nc2c(C)c(-c3ccnc(N=S(C)(C)=O)c3)nn2-c2ccccc2)[C@H](c2ccccc2)C1` (racemic) [Compound I-96] showed an IC50 of less than 100 nM. With `COCCN1C[C@@H](NC(=O)Nc2c(C)c(-c3cnc4c(c3)nc(CO)n4C)nn2-c2ccccc2)[C@H](c2ccccc2)C1` (racemic) [Compound I-97] the IC50 was less than 100 nM. `COCCN1C[C@@H](NC(=O)Nc2c(C)c(-c3cnn(C)c3)nn2-c2ccccc2)[C@H](c2cc(F)ncc2F)C1` (racemic) [Compound I-98] showed an IC50 of less than 100 nM. Compound `COCCN1C[C@@H](NC(=O)Nc2c(C)c(-c3cnc4c(c3)c(=O)n(C)n4C)nn2-c2ccccc2)[C@H](c2ccccc2)C1` (racemic) [Compound I-99] has an IC50 of less than 100 nM. `COCCN1C[C@@H](NC(=O)Nc2c(C)c(-c3cnc(OC)c(C(=O)NC4CS(=O)(=O)C4)c3)nn2-c2ccccc2)[C@H](c2ccccc2)C1` (racemic) [Compound I-101] was tested, and the IC50 was less than 100 nM. `COCCN1C[C@@H](NC(=O)Nc2c(C)c(-c3cnc4c(c3)c(C)nn4C)nn2-c2ccccc2)[C@H](c2ccnc(F)c2)C1` (racemic) [Compound I-104] was tested, and the IC50 was less than 100 nM. With `COCCN1C[C@@H](NC(=O)Nc2c(C)c(-c3cnc4c(c3)nnn4C)nn2-c2ccccc2)[C@H](c2ccnc(F)c2)C1` (racemic) [Compound I-105] the IC50 was less than 100 nM. In the case of `COCCN1C[C@@H](NC(=O)Nc2c(C)c(-c3cncc(N=S(C)(C)=O)c3)nn2-c2ccccc2)[C@H](c2ccccc2)C1` (racemic) [Compound I-106], the IC50 is reported as less than 100 nM. With `COCCN1C[C@@H](NC(=O)Nc2c(C)c(-c3cnc4[nH]c(=O)oc4c3)nn2-c2ccccc2)[C@H](c2ccccc2)C1` (racemic) [Compound I-107] the IC50 was less than 100 nM. `COCCN1C[C@@H](NC(=O)Nc2c(C)c(-c3cc(C(=O)NC4CCCCC4)c(=O)n(C)c3)nn2-c2ccccc2)[C@H](c2ccccc2)C1` (racemic) [Compound I-108] was tested, and the IC50 was less than 100 nM. Compound `COCCN1C[C@@H](NC(=O)Nc2c(C)c(-c3cc(C(=O)N[C@@H]4CCCOC4)c(=O)n(C)c3)nn2-c2ccccc2)[C@H](c2ccccc2)C1` (racemic) [Compound I-109] has an IC50 of less than 100 nM. `COCCN1C[C@@H](NC(=O)Nc2c(C)c(-c3cc(C(=O)NC4CCS(=O)(=O)CC4)c(=O)n(C)c3)nn2-c2ccccc2)[C@H](c2ccccc2)C1` (racemic) [Compound I-110] showed an IC50 of less than 100 nM. For `COCCN1C[C@@H](NC(=O)Nc2c(C)c(-c3cc(C(=O)N[C@H]4CCOC4)c(=O)n(C)c3)nn2-c2ccccc2)[C@H](c2ccccc2)C1` (racemic) [Compound I-111], the IC50 was less than 100 nM. For `COCCN1C[C@@H](NC(=O)Nc2c(C)c(-c3cc(C(=O)N[C@@H]4CCOC4)c(=O)n(C)c3)nn2-c2ccccc2)[C@H](c2ccccc2)C1` (racemic) [Compound I-112], the IC50 was less than 100 nM. `COCCN1C[C@@H](NC(=O)Nc2c(C)c(-c3cc(C(=O)NC4CC(F)(F)C4)c(=O)n(C)c3)nn2-c2ccccc2)[C@H](c2ccccc2)C1` (racemic) [Compound I-113] gave an IC50 of less than 100 nM. For `COCCN1C[C@@H](NC(=O)Nc2c(C)c(-c3cc(C(=O)NC[C@@H](C)O)c(=O)n(C)c3)nn2-c2ccccc2)[C@H](c2ccccc2)C1` (racemic) [Compound I-114], the IC50 was less than 100 nM. Work on `COCCN1C[C@@H](NC(=O)Nc2c(C)c(-c3cc(C(=O)NC(C)(C)CO)c(=O)n(C)c3)nn2-c2ccccc2)[C@H](c2ccccc2)C1` (racemic) [Compound I-115] yielded an IC50 of less than 100 nM. `COCCN1C[C@@H](NC(=O)Nc2c(C)c(-c3cnc(N=S(C)(C)=O)c(C)c3)nn2-c2ccccc2)[C@H](c2ccccc2)C1` (racemic) [Compound I-121] was tested, and the IC50 was less than 100 nM. `CCOc1ncc(-c2nn(-c3ccccc3)c(NC(=O)N[C@@H]3CN(CCOC)C[C@H]3c3ccccc3)c2C)cc1C(=O)NC` (racemic) [Compound I-122] gave an IC50 of less than 100 nM. Work on `CNC(=O)c1cc(-c2nn(-c3ccccc3)c(NC(=O)N[C@@H]3CN(CCOC)C[C@H]3c3ccccc3)c2C)cnc1OCCO` (racemic) [Compound I-123] yielded an IC50 of less than 100 nM. For `CNC(=O)c1cc(-c2nn(-c3ccccc3)c(NC(=O)N[C@@H]3CN(CCOC)C[C@H]3c3ccccc3)c2C)cnc1OCCOC` (racemic) [Compound I-124], the IC50 was less than 100 nM. `CNC(=O)c1cc(-c2nn(-c3ccccc3)c(NC(=O)N[C@@H]3CN(CCOC)C[C@H]3c3ccccc3)c2C)cnc1OCC(F)F` (racemic) [Compound I-125] showed an IC50 of less than 100 nM. In the case of `CNC(=O)c1cc(-c2nn(-c3ccccc3)c(NC(=O)N[C@@H]3CN(CCOC)C[C@H]3c3ccccc3)c2C)cnc1OCF` (racemic) [Compound I-126], the IC50 is reported as less than 100 nM. In the case of `CNC(=O)c1cc(-c2nn(-c3ccccc3)c(NC(=O)N[C@@H]3CN(CCOC)C[C@H]3c3ccccc3)c2C)cn(CCOC)c1=O` (racemic) [Compound I-127], the IC50 is reported as less than 100 nM. Compound `CNC(=O)c1cc(-c2nn(-c3ccccc3)c(NC(=O)N[C@@H]3CN(CCOC)C[C@H]3c3ccccc3)c2C)cnc1OC(F)F` (racemic) [Compound I-128] has an IC50 of less than 100 nM. Compound `CCNC(=O)c1cc(-c2nn(-c3ccccc3)c(NC(=O)N[C@@H]3CN(CCOC)C[C@H]3c3ccccc3)c2C)cnc1OCC` (racemic) [Compound I-129] has an IC50 of less than 100 nM. `CCNC(=O)c1cc(-c2nn(-c3ccccc3)c(NC(=O)N[C@@H]3CN(CCOC)C[C@H]3c3ccccc3)c2C)cnc1OCCOC` (racemic) [Compound I-130] gave an IC50 of less than 100 nM. Compound `CCNC(=O)c1cc(-c2nn(-c3ccccc3)c(NC(=O)N[C@@H]3CN(CCOC)C[C@H]3c3ccccc3)c2C)cnc1OCC(F)F` (racemic) [Compound I-131] has an IC50 of less than 100 nM.

Same assay, conditions: human TrkA phosphorylation inhibition, ATP 500 μmol/L; read-out: IC50 value
Compound `COCCN1C[C@@H](NC(=O)Nc2c(C)c(-c3cnc4c(c3)oc(=O)n4C)nn2-c2ccccc2)[C@H](c2ccccc2)C1` (racemic) [Compound I-76] has an IC50 of 3.1 nM. `COCCN1C[C@@H](NC(=O)Nc2c(C)c(-c3cnc4c(cnn4C)c3)nn2-c2ccccc2)[C@H](c2ccnc(F)c2)C1` (racemic) [Compound I-90] gave an IC50 of 2.2 nM. `COCCN1C[C@@H](NC(=O)Nc2c(C)c(-c3ccnc(C(=O)NOC)c3)nn2-c2ccccc2)[C@H](c2ccccc2)C1` (racemic) [Compound I-100] gave an IC50 of 6.8 nM.
